Measurements as given in paper PMC3171737 (Journal of medicinal chemistry, 2011).
Where two headings read alike, the source gives them in different places.

Legend:
[1] = tested on: H3K9me2 levels in MDA-MB-231 cells; assay: H3K9me2 In-Cell Western; assay type: cell-based
[2] = tested on: HCT116 p53−/− cells; assay: MTT assay, HCT116 p53−/−; assay type: cell-based; conditions: Homo sapiens, HCT-116, 48 h, read-out: MTT EC50
[3] = tested on: H3K9me2 levels in PC3 cells; assay: H3K9me2 ICW assay, PC3; assay type: cell-based; conditions: Homo sapiens, PC-3, 48 h, read-out: ICW IC50
[4] = tested on: H3K9me2 levels in 22RV1 cells; assay: H3K9me2 ICW assay, 22RV1; assay type: cell-based; conditions: Homo sapiens, 22Rv1, 48 h, read-out: ICW IC50
[5] = tested on: HCT116 wt cells; assay: MTT assay, HCT116 wt; assay type: cell-based; conditions: Homo sapiens, HCT-116, 48 h, read-out: MTT EC50
[6] = tested on: MDA-MB-231 cells; assay: MTT cell toxicity assay, MDA-MB-231; assay type: cell-based; conditions: Homo sapiens, MDA-MB-231, 48 h, read-out: MTT EC50
[7] = tested on: H3K9me2 levels in MCF7 cells; assay: H3K9me2 ICW assay, MCF7; assay type: cell-based; conditions: Homo sapiens, MCF7, 48 h, read-out: ICW IC50
[8] = tested on: H3K9me2 levels in HCT116 wt cells; assay: H3K9me2 ICW assay, HCT116 wt; assay type: cell-based; conditions: Homo sapiens, HCT-116, 48 h, read-out: ICW IC50
[9] = molecular target: T1, G9a (Homo sapiens, UniProt Q96KQ7); assay: G9a SAHH-coupled assay; assay type: biochemical; conditions: versus compound 5
T1 sequence (Q96KQ7 1-1210): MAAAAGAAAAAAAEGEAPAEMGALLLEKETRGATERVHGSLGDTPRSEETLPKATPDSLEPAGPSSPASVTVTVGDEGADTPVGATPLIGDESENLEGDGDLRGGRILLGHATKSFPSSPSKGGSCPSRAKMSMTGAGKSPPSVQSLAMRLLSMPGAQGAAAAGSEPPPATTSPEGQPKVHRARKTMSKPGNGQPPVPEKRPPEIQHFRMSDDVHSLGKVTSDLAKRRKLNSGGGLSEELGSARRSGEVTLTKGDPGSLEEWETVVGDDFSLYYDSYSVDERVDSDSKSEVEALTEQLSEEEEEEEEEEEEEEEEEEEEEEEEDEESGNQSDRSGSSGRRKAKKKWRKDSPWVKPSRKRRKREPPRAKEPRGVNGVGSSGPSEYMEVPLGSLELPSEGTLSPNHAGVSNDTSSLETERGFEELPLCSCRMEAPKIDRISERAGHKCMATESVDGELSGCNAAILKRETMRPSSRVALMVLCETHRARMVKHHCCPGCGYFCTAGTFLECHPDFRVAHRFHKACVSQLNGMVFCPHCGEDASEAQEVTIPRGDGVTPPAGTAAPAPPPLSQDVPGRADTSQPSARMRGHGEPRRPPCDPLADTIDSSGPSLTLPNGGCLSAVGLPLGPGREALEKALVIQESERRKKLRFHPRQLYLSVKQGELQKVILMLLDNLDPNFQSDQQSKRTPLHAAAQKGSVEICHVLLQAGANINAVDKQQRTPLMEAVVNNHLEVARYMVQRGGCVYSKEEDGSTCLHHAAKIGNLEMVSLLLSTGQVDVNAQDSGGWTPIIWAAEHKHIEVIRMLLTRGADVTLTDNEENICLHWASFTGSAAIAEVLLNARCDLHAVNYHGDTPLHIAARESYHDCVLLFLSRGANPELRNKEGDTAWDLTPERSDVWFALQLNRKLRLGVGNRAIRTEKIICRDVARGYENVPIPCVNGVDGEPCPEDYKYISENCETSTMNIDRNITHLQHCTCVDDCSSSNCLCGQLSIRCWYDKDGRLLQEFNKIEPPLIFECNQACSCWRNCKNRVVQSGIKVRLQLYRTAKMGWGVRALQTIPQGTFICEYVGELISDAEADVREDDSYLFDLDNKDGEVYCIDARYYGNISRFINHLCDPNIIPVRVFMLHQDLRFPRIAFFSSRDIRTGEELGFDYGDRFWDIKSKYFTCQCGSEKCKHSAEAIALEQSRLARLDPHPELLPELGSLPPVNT

[10] = Homo sapiens, MDA-MB-231, 48 h, read-out: Cellular IC50 (Reduction of H3K9me2 (ICW)), Table 2, MDA-MB-231 cells, 48 h
[11] = Homo sapiens, MDA-MB-231, 48 h, read-out: Cellular IC50 (Reduction of H3K9me2 (ICW)), Table 4, MDA-MB-231 cells, 48 h
[12] = read-out: Cellular IC50 (Reduction of H3K9me2 (ICW)), Table 2, MDA-MB-231 cells, 48 h

SMILES: COc1cc2c(NC3CCN(C(C)C)CC3)nc(N3CCCN(CC4CCCCC4)CC3)nc2cc1OCCCN1CCCC1 [Compound 17e, 2-(4-(Cyclohexylmethyl)-1,4-diazepan-1-yl)-N-(1-isopropylpiperidin-4-yl)-6-methoxy-7-(3-(pyrrolidin-1-yl)propoxy)quinazolin-4-amine]
- IC50 [1, 10]: ≤ 0.1 µM

SMILES: COc1cc2c(NC3CCN(C(C)C)CC3)nc(C3CCCCC3)nc2cc1OCCCN1CCCC1 [Compound 5, 2-Cyclohexyl-N-(1-isopropylpiperidin-4-yl)-6-methoxy-7-(3-(pyrrolidin-1-yl)propoxy)quinazolin-4-amine]
- IC50 ([1]; Homo sapiens, MDA-MB-231, 48 h, read-out: Cellular IC50 (Reduction of H3K9me2 (ICW))): 0.081 µM
- IC50 [1, 10]: ≤ 0.1 µM
- IC50 ([1]; Homo sapiens, MDA-MB-231, 48 h, read-out: ICW IC50): 0.081 µM
- EC50 [2]: 11 µM
- IC50 [3]: 0.059 µM
- IC50 [4]: 0.048 µM
- EC50 [5]: 11 µM
- EC50 [6]: 11 µM
- IC50 [7]: 0.07 µM
- IC50 [8]: 0.21 µM

SMILES: COc1cc2c(NC3CCN(C4CCCCC4)CC3)nc(N3CCCN(C(C)C)CC3)nc2cc1OCCCN1CCCCC1 [Compound 6, N-(1-cyclohexylpiperidin-4-yl)-2-(4-isopropyl-1,4-diazepan-1-yl)-6-methoxy-7-(3-(piperidin-1-yl)propoxy)quinazolin-4-amine]
- IC50 [1, 11]: < 0.06 µM

SMILES: COc1cc2c(NC3CCN(C(C)C)CC3)nc(C3CCCCC3)nc2cc1OCCCN1CCCCC1 [Compound 24a, 2-Cyclohexyl-N-(1-isopropylpiperidin-4-yl)-6-methoxy-7-(3-(piperidin-1-yl)propoxy)quinazolin-4-amine]
- Fold lower potency in the G9a biochemical assay compared to compound 5 [9]: about 10 fold

SMILES: COc1cc2c(NC3CCN(C)CC3)nc(N3CCCN(C)CC3)nc2cc1OCCCN(C)C [Compound 2]
- IC50 ([1]; Homo sapiens, MDA-MB-231, 48 h, read-out: Cellular IC50 (Reduction of H3K9me2 (ICW)), Table 1, MDA-MB-231 cells, 48 h): > 5 µM

SMILES: COc1cc2c(NC3CCN(C(C)C)CC3)nc(N3CCCN(Cc4ccccc4)CC3)nc2cc1OCCCN1CCCC1 [Compound 17g, 2-(4-Benzyl-1,4-diazepan-1-yl)-N-(1-isopropylpiperidin-4-yl)-6-methoxy-7-(3-(pyrrolidin-1-yl)propoxy)quinazolin-4-amine]
- IC50 [1, 10]: ≤ 0.1 µM

SMILES: COc1cc2c(NC3CCN(C(C)C)CC3)nc(N3CCCN(C(C)C)CC3)nc2cc1OCCCN1CCCCC1 [Compound 25, 2-(4-Isopropyl-1,4-diazepan-1-yl)-N-(1-isopropylpiperidin-4-yl)-6-methoxy-7-(3-(piperidin-1-yl)propoxy)quinazolin-4-amine]
- IC50 [1, 11]: < 0.06 µM

SMILES: COc1cc2c(NC3CCN(C(C)C)CC3)nc(N3CCCCCC3)nc2cc1OCCCN1CCCC1 [Compound 17i, 2-(Azepan-1-yl)-N-(1-isopropylpiperidin-4-yl)-6-methoxy-7-(3-(pyrrolidin-1-yl)propoxy)quinazolin-4-amine]
- IC50 [1, 10]: ≤ 0.1 µM
- IC50 [1, 12]: 0.1 µM

SMILES: COc1cc2c(NC3CCN(CC4CCCCC4)CC3)nc(N3CCCN(C(C)C)CC3)nc2cc1OCCCN1CCCCC1 [Compound 7, N-(1-(cyclohexylmethyl)piperidin-4-yl)-2-(4-isopropyl-1,4-diazepan-1-yl)-6-methoxy-7-(3-(piperidin-1-yl)propoxy)quinazolin-4-amine]
- IC50 [1, 11]: < 0.06 µM

SMILES: COc1cc2c(NC3CCN(C(C)C)CC3)nc(N3CCCN(C4CCCCC4)CC3)nc2cc1OCCCN1CCCC1 [Compound 17d, 2-(4-Cyclohexyl-1,4-diazepan-1-yl)-N-(1-isopropylpiperidin-4-yl)-6-methoxy-7-(3-(pyrrolidin-1-yl)propoxy)quinazolin-4-amine]
- IC50 [1, 10]: ≤ 0.1 µM
- IC50 [1, 12]: 0.1 µM

SMILES: COc1cc2c(NC3CCN(C4CCCCC4)CC3)nc(N3CCCN(C)CC3)nc2cc1OCCCN1CCCCC1 [Compound 26, N-(1-cyclohexylpiperidin-4-yl)-6-methoxy-2-(4-methyl-1,4-diazepan-1-yl)-7-(3-(piperidin-1-yl)propoxy)quinazolin-4-amine]
- IC50 [1, 11]: < 0.06 µM
